Results reported in patent publication US7056491B2, “Monoterpenes and sesquiterpenes as chemotherapeutic and radiation sensitizers and immunomodulators” (Wisconsin Alumni Research Foundation, priority 2000, dated 2006).

What was measured:
Fas Ligand = experiment: Membrane bound Fas ligand staining by flow cytometry; type: cell-based, human
Experimental: Referring to FIG. 17, glioma cell lines (T98G, U251, U87 and U353) were treated with 0.3 mM perillyl alcohol (POH) for 72 hours and the cells were harvested using cell dissociation solution. The resulting cell pellet was stained with biotinylated antibody specific to the human Fas-Ligand (Pharmingen), or IgG1 k isotype control for 45 minutes at 4° C. The cells were washed and incubated with streptavidin conjugated phycoerythrin washed and analyzed by flow cytometry.
(§1) The cells were harvested using cell dissociation solution, and the resulting cell pellet was washed and incubated with biotinylated anti-human antibody, which served as a control to eliminate non-specific binding. Following the primary antibody incubation the cells were washed and subsequently stained with secondary antibody conjugated to phycoerythrin (PE) (PharMingen) and antibody to CD95 directly conjugated to allophycocyanin (APC). The stained cells were analyzed using a Beckton-Dickinson FACStar plus and the results were acquired using CELLquest software.
(§2) Subconfluent cultures of the indicated glioma (T98G, U251, U353, U87MG), prostate (DU145, PC3), colon (DLD-1) and melanoma (Mel5) cell lines were treated with varying concentrations of POH (0.1 mM–1 mM POH) dissolved in medium for 72 hours. […] The stained cells were analyzed using a Beckton-Dickinson FACStar plus and the results were acquired using CELLquest. […]

HT29 colon cancer cells = experiment: Clonogenic survival assay, POH with or without radiation, HT29; type: cell-based, human
Experimental: (§3) Table 1 summarizing data from different cell lines treated with radiation, radiation plus POH, and POH alone. Subconfluent cultures of human glioma (T98G, M059K, U251), prostate (DU145, PC3), colon (DLD-1, HT29) and pancreatic (MIAPACA) cancer cell lines were treated with 0.1–0.5 mM of POH for 72 hours and subsequently to increasing doses of radiation from 0.1 Gy to 8.5 Gy. Control cells were treated with medium alone. The cells were harvested and an optimum number of cells were allowed to grow for 14 days. The resulting colonies were stained and counted. Each graphed point represents mean values ± SE values of triplicate dishes. Percentage survival was determined as the ratio of plating efficiencies for each irradiated group to that of the unirradiated control.

pancreatic carcinoma = conditions: POH-fed hamsters; control animals showed tumor growth; cited from earlier work
MO59K cells = experiment: Clonogenic survival assay, POH with or without radiation, MO59K; type: cell-based, human; conditions: for % SURVIVAL: MO59K
Experimental: (§4) Subconfluent cultures of human glioma cell line MO 59K were treated with 0.1–0.5 mM of POH for 72 hours and subsequently to increasing doses of radiation from 0.1 Gy to 8.5 Gy. Control cells were treated with the indicated doses of radiation alone. The cells were harvested and an optimum number of cells were allowed to grow for 14 days. The resulting colonies were stained and counted. Each graphed point represents mean values ± SE values of triplicate dishes.
as §3

U251 cells = experiment: Clonogenic survival assay, POH with or without radiation, U251; type: cell-based, human
Experimental: as §4, with “U251” for “MO 59K”
as §3

Fas receptor = Fas receptor (CD95) staining by flow cytometry; type: cell-based, human; conditions: 0.1 mM–1 mM POH 72 hours; same cell lines except U87MG
Experimental: as §1
as §2, with “hours. At the end of the incubation, the cells were harvested using cell dissociation solution, and the resulting cell pellet was washed and incubated with biotinylated anti-human antibody to the FasL (PharMingen) or with an isotype matched anti-human antibody, which served as a control to eliminate non-specific binding.” for “hours.”

[1] = test system: glioma, prostate, melanoma and colon cell lines; experiment: Cell cycle analysis by propidium iodide flow cytometry; type: cell-based; conditions: 1 mM POH 72 hours
Experimental: The indicated glioma (T98G, U251, U87, C6, U353 and MO59K), prostate (DU145 and PC3) melanoma (Mel5 and M21) and colon (DLD-1, HT29) cell lines were treated with medium or with 1 mM of POH dissolved in medium for 72 hours. The cells were harvested, fixed stained with propidium iodide and analyzed by flow cytometry to estimate the various phases of the cell cycle. Each point on the graph represents mean values of duplicate dishes.

[2] = test system: T98G and U87MG cell lines; experiment: Inhibition of Fas-induced apoptosis by antagonistic antibody ZB4; type: cell-based; conditions: 1 mM POH with CH11, absence of cycloheximide; inhibited by ZB4
Experimental: Referring to FIG. 26, semiconfluent culture plates T98G and U87MG cell lines were treated with the 1 mM POH in the presence or absence of the anti-CD95 antibody CH11 (100 ng/ml), cycloheximide (CX), the Fas-induced apoptosis blocking antibody ZB4 (2 ug/ml) or a combination of all for a period of 72 hours. Viability analysis was carried out using propidium iodide solution by flow cytometric analysis. Each graphed point in the figure represents the average values of duplicate samples.

T98G cells = experiment: Clonogenic survival, POH pretreatment then cisplatin, T98G; type: cell-based, human; conditions: POH 0.1 mM–0.5 mM 48 hours then cisplatin 0.05 uM–1 uM 48 hours
Experimental: Referring to FIG. 28, subconfluent cells of T98G cells were treated with varying concentrations of perillyl alcohol (0.1 mM–0.5 mM) for 48 hours and subsequently treated with the indicated dose of cisplatin (0.05 uM–1 uM) for 48 hours. At the end of the treatment, POH pretreated and untreated cells in the presence and absence of cisplatin, were harvested, washed with PBS, plated at the desired cell number and incubated for two weeks. The colonies were stained with crystal violet and quantitated. Survival was determined as the ratio of plating efficiencies for each irradiated group to that of the untreated control.

## C=C(C)[C@@H]1CC=C(CO)CC1 [POH, Perillyl alcohol]
Fas Ligand; 0.1 mM–1 mM POH 72 hours, more pronounced at lower concentrations
  Fas Ligand in glioma, prostate, colon and melanoma cell lines: upregulation of the Fas Ligand
Fas Ligand; T98G, U251, U87, U353, 0.3 mM POH 72 hours
  membrane bound Fas ligand on glioma cell lines: upregulation
HT29 colon cancer cells; 0.1 mM POH 72 h, no radiation
  % SURVIVAL: 1.060 ± 0.090%
HT29 colon cancer cells; 0.1 mM POH + 5.5 Gy
  % SURVIVAL: 0.050 ± 0.005%
HT29 colon cancer cells; 0.3 mM POH 72 h, no radiation
  % SURVIVAL: 0.714 ± 0.030%
HT29 colon cancer cells; 0.3 mM POH + 5.5 Gy
  % SURVIVAL: 0.034 ± 0.003%
HT29 colon cancer cells; 0.5 mM POH 72 h, no radiation
  % SURVIVAL: 0.400 ± 0.010%
HT29 colon cancer cells; 0.5 mM POH + 5.5 Gy
  % SURVIVAL: 0.006 ± 0.002%
Pancreatic carcinoma
  antitumor effect in pancreatic carcinoma models: either regression or no growth of the tumors
MO59K cells; M059K, cells not initially radiation resistant, 0.1–0.5 mM POH 72 h
  radiosensitization: lack of radiosensitization
MO59K cells; 0.1 mM POH 72 h, no radiation
  % SURVIVAL: 0.939 ± 0.005%
MO59K cells; 0.1 mM POH + 5.5 Gy
  % SURVIVAL: 0.061 ± 0.007%
MO59K cells; 0.3 mM POH 72 h, no radiation
  % SURVIVAL: 0.660 ± 0.020%
MO59K cells; 0.3 mM POH + 5.5 Gy
  % SURVIVAL: 0.080 ± 0.015%
MO59K cells; 0.5 mM POH 72 h, no radiation
  % SURVIVAL: 0.623 ± 0.009%
MO59K cells; 0.5 mM POH + 5.5 Gy
  % SURVIVAL: 0.056 ± 0.006%
U251 cells; 0.1 mM POH 72 h, no radiation
  % SURVIVAL: 1.066 ± 0.200%
U251 cells; 0.1 mM POH + 5.5 Gy
  % SURVIVAL: 0.253 ± 0.004%
U251 cells; 0.3 mM POH 72 h, no radiation
  % SURVIVAL: 0.397 ± 0.059%
U251 cells; 0.3 mM POH + 5.5 Gy
  % SURVIVAL: 0.046 ± 0.005%
U251 cells; 0.5 mM POH 72 h, no radiation
  % SURVIVAL: 0.257 ± 0.010%
U251 cells; 0.5 mM POH + 5.5 Gy
  % SURVIVAL: 0.019 ± 0.001%
Fas receptor
  levels of the Fas receptor: did not alter
[1]; MO59K
  cell cycle effect: G0/G1 block
[1]; all the cell lines except MO59K
  cell cycle effect: block in the G2/M phase
[2]
  Fas-mediated apoptosis: augmented Fas-mediated apoptosis
T98G cells
  sensitization to cisplatin-induced cell death: dose-dependent sensitization
